According to PubChem BioAssay (NCI):
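Five concentrations, 48 hours, 96-well plates. TGI denotes the concentration required for complete inhibition of growth.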

How the values were obtained:
Assay in all cases: NCI-60 cell line screen, 48 h
MCF7 breast = test system: MCF7 breast
NCI-H522 lung = test system: NCI-H522 lung
SNB-75 CNS = test system: SNB-75 CNS
OVCAR-8 ovarian = test system: OVCAR-8 ovarian
MOLT-4 leukemia = test system: MOLT-4 leukemia
A549 NSCLC = test system: A549 NSCLC
SW-620 colon = test system: SW-620 colon
NCI-H460 lung = test system: NCI-H460 lung
NCI/ADR-RES ovarian = test system: NCI/ADR-RES ovarian
SK-MEL-28 melanoma = test system: SK-MEL-28 melanoma
SF-295 CNS = test system: SF-295 CNS
MALME-3M melanoma = test system: MALME-3M melanoma
KM12 colon = test system: KM12 colon
SNB-19 CNS = test system: SNB-19 CNS
OVCAR-5 ovarian = test system: OVCAR-5 ovarian
HS 578T breast = test system: HS 578T breast
SK-MEL-2 melanoma = test system: SK-MEL-2 melanoma
CCRF-CEM leukemia = test system: CCRF-CEM leukemia
HOP-92 NSCLC = test system: HOP-92 NSCLC
T-47D breast = test system: T-47D breast
HOP-62 NSCLC = test system: HOP-62 NSCLC
HL-60(TB) leukemia = test system: HL-60(TB) leukemia
HCC-2998 colon = test system: HCC-2998 colon
UO-31 renal = test system: UO-31 renal
HCT-15 colon = test system: HCT-15 colon
PC-3 prostate = test system: PC-3 prostate
ACHN renal = test system: ACHN renal
786-0 renal = test system: 786-0 renal
COLO 205 colon = test system: COLO 205 colon
OVCAR-4 ovarian = test system: OVCAR-4 ovarian
MDA-MB-231 breast = test system: MDA-MB-231 breast
UACC-257 melanoma = test system: UACC-257 melanoma
MDA-MB-435 = test system: MDA-MB-435
NCI-H23 lung = test system: NCI-H23 lung
RPMI-8226 leukemia = test system: RPMI-8226 leukemia
SF-268 CNS = test system: SF-268 CNS
CAKI-1 renal = test system: CAKI-1 renal
OVCAR-3 ovarian = test system: OVCAR-3 ovarian
EKVX NSCLC = test system: EKVX NSCLC
LOX IMVI melanoma = test system: LOX IMVI melanoma
U251 CNS = test system: U251 CNS
SK-MEL-5 melanoma = test system: SK-MEL-5 melanoma
HT29 colon = test system: HT29 colon
SR leukemia = test system: SR leukemia
A498 renal = test system: A498 renal
M14 melanoma = test system: M14 melanoma
K-562 leukemia = test system: K-562 leukemia
MDA-N = test system: MDA-N
DU-145 prostate = test system: DU-145 prostate
SK-OV-3 ovarian = test system: SK-OV-3 ovarian
UACC-62 melanoma = test system: UACC-62 melanoma
TK-10 renal = test system: TK-10 renal
RXF 393 renal = test system: RXF 393 renal
IGROV1 ovarian = test system: IGROV1 ovarian
NCI-H226 lung = test system: NCI-H226 lung
BT-549 breast = test system: BT-549 breast
SN12C renal = test system: SN12C renal
HCT-116 colon = test system: HCT-116 colon

Compound: C[C@@H](Br)[C@@H]1CC[C@H]2c3[nH]c4ccccc4c3CCN2C1
- TGI (MCF7 breast): 77.6 µM
- TGI (NCI-H522 lung): 29.5 µM
- TGI (SNB-75 CNS): 48.3 µM
- TGI (OVCAR-8 ovarian): > 100 µM
- TGI (MOLT-4 leukemia): 49.7 µM
- TGI (A549 NSCLC): > 100 µM
- TGI (SW-620 colon): 70.8 µM
- TGI (NCI-H460 lung): 70.1 µM
- TGI (NCI/ADR-RES ovarian): 47.3 µM
- TGI (SK-MEL-28 melanoma): > 100 µM
- TGI (SF-295 CNS): 47.8 µM
- TGI (MALME-3M melanoma): 40.3 µM
- TGI (KM12 colon): 28.5 µM
- TGI (SNB-19 CNS): 43.9 µM
- TGI (OVCAR-5 ovarian): > 100 µM
- TGI (HS 578T breast): 33.9 µM
- TGI (SK-MEL-2 melanoma): 50.6 µM
- TGI (CCRF-CEM leukemia): 54.8 µM
- TGI (HOP-92 NSCLC): 65.2 µM
- TGI (T-47D breast): 61.2 µM
- TGI (HOP-62 NSCLC): 40.5 µM
- TGI (HL-60(TB) leukemia): 39.5 µM
- TGI (HCC-2998 colon): 31.3 µM
- TGI (UO-31 renal): > 100 µM
- TGI (HCT-15 colon): 48.1 µM
- TGI (PC-3 prostate): 75.4 µM
- TGI (ACHN renal): > 100 µM
- TGI (786-0 renal): 36.6 µM
- TGI (COLO 205 colon): 26.3 µM
- TGI (OVCAR-4 ovarian): > 100 µM
- TGI (MDA-MB-231 breast): 41.1 µM
- TGI (UACC-257 melanoma): > 100 µM
- TGI (MDA-MB-435): 45.6 µM
- TGI (NCI-H23 lung): 67.1 µM
- TGI (RPMI-8226 leukemia): 37.4 µM
- TGI (SF-268 CNS): > 100 µM
- TGI (CAKI-1 renal): 52.4 µM
- TGI (OVCAR-3 ovarian): 42.4 µM
- TGI (EKVX NSCLC): > 100 µM
- TGI (LOX IMVI melanoma): 32.9 µM
- TGI (U251 CNS): 55.8 µM
- TGI (SK-MEL-5 melanoma): 29.4 µM
- TGI (HT29 colon): 67.8 µM
- TGI (SR leukemia): 38.3 µM
- TGI (A498 renal): > 100 µM
- TGI (M14 melanoma): 44 µM
- TGI (K-562 leukemia): 38.6 µM
- TGI (MDA-N): 44 µM
- TGI (DU-145 prostate): > 100 µM
- TGI (SK-OV-3 ovarian): 87.2 µM
- TGI (UACC-62 melanoma): 33.5 µM
- TGI (TK-10 renal): > 100 µM
- TGI (RXF 393 renal): 61.5 µM
- TGI (IGROV1 ovarian): 77.8 µM
- TGI (NCI-H226 lung): > 100 µM

Compound: CC(=O)Nc1ccc2cc3c(nc2n1)c1cccnc1n3S(=O)(=O)c1ccccc1
- TGI (MCF7 breast): > 100 µM
- TGI (NCI-H522 lung): > 100 µM
- TGI (SNB-75 CNS): > 100 µM
- TGI (OVCAR-8 ovarian): > 100 µM
- TGI (MOLT-4 leukemia): > 100 µM
- TGI (A549 NSCLC): > 100 µM
- TGI (SW-620 colon): > 100 µM
- TGI (NCI-H460 lung): > 100 µM
- TGI (NCI/ADR-RES ovarian): > 100 µM
- TGI (SK-MEL-28 melanoma): > 100 µM
- TGI (SF-295 CNS): > 100 µM
- TGI (BT-549 breast): > 100 µM
- TGI (MALME-3M melanoma): > 100 µM
- TGI (KM12 colon): > 100 µM
- TGI (SNB-19 CNS): > 100 µM
- TGI (OVCAR-5 ovarian): > 100 µM
- TGI (HS 578T breast): > 100 µM
- TGI (SK-MEL-2 melanoma): > 100 µM
- TGI (CCRF-CEM leukemia): > 100 µM
- TGI (HOP-92 NSCLC): > 100 µM
- TGI (SN12C renal): > 100 µM
- TGI (HOP-62 NSCLC): > 100 µM
- TGI (HL-60(TB) leukemia): > 100 µM
- TGI (HCC-2998 colon): > 100 µM
- TGI (UO-31 renal): > 100 µM
- TGI (HCT-15 colon): > 100 µM
- TGI (PC-3 prostate): > 100 µM
- TGI (ACHN renal): > 100 µM
- TGI (786-0 renal): > 100 µM
- TGI (COLO 205 colon): > 100 µM
- TGI (OVCAR-4 ovarian): > 100 µM
- TGI (MDA-MB-231 breast): > 100 µM
- TGI (UACC-257 melanoma): > 100 µM
- TGI (MDA-MB-435): > 100 µM
- TGI (NCI-H23 lung): > 100 µM
- TGI (RPMI-8226 leukemia): > 100 µM
- TGI (SF-268 CNS): > 100 µM
- TGI (CAKI-1 renal): > 100 µM
- TGI (HCT-116 colon): > 100 µM
- TGI (OVCAR-3 ovarian): > 100 µM
- TGI (EKVX NSCLC): > 100 µM
- TGI (LOX IMVI melanoma): > 100 µM
- TGI (U251 CNS): > 100 µM
- TGI (SK-MEL-5 melanoma): > 100 µM
- TGI (HT29 colon): > 100 µM
- TGI (SR leukemia): > 100 µM
- TGI (A498 renal): > 100 µM
- TGI (M14 melanoma): > 100 µM
- TGI (K-562 leukemia): > 100 µM
- TGI (MDA-N): > 100 µM
- TGI (SK-OV-3 ovarian): > 100 µM
- TGI (UACC-62 melanoma): > 100 µM
- TGI (TK-10 renal): > 100 µM
- TGI (RXF 393 renal): > 100 µM
- TGI (IGROV1 ovarian): > 100 µM
- TGI (NCI-H226 lung): > 100 µM
